Where two headings read alike, the source gives them in different places.
Columns and labels:
[1] = from C=CCCNC(=O)c1cc(C)c2c(C3CCCCC3)c(-c3ccc4nc(-c5cc(OC)ccc5-c5ccc(Cl)cc5)ccc4c3)n(C(=O)NCCC=C)c2c1; rcm bond; 15-membered ring; Hoveyda-Grubbs 1st gen (0.42 eq); DCE; 1.32 mM; 80.0 °C
[2] = rcm bond, Hoveyda-Grubbs 1st generation catalyst, 80.0 °C

Row | Compound | ring closure, isolated yield [1] [%] | ring closure, yield of all isomers ([2]; from C=CCCNC(=O)Cn1c(-c2ccc3nc(-c4cc(OC)ccc4-c4ccc(Cl)cc4)ccc3c2)c(C2CCCCC2)c2ccc(C(=O)NCCC=C)cc21, DCE, 1.32 mM) [%] | ring closure, yield of all isomers ([2]; from C=CCCNC(=O)Cn1c(-c2ccoc2)c(C2CCCCC2)c2ccc(C(=O)NCCC=C)cc21, 1,2-dichloroethane, 1.585 mM, 15.0 h) [%]
1 | COc1ccc(-c2ccc(Cl)cc2)c(-c2ccc3cc(-c4c(C5CCCCC5)c5ccc6cc5n4CC(=O)NCCC=CCCNC6=O)ccc3n2)c1 | 30 | 30 | –
2 | O=C1Cn2c(-c3ccoc3)c(C3CCCCC3)c3ccc(cc32)C(=O)NCCC=CCCN1 | – | – | 22

Reference: patent US8524716B2, “Macrocyclic indoles as hepatitis C virus inhibitors” (priority 2007, dated 2013)
